Laboratory results from patent US12552833B2, “Dynamics within supramolecuar IKVAV matrices enhance functional maturation of human IPSCS-derived neurons and regeneration” (Northwestern University, priority 2019, dated 2026).
No end group written: not given here. *: point of attachment. Palmitoyl = CCCCCCCCCCCCCCCC(=O)*

Legend:
human MNs [1] = experiment: Patch-electrode recording of action potentials from human MNs grown on A2G2 and laminin matrices; type: cell-based; details: MNs grown on A2G2 compared with laminin matrices, day 48-49 (FIG. 4L)
Protocol: Motor neurons (MN) differentiation: At 70% confluency, iPSC cultures were dissociated using Accutase and plated at a density of 10^5 cells/cm^2 with 10 μM ROCK inhibitor (Y-27632, DNSK International) in mTeSR1. Next day (day 0), media was replaced with N2B27 medium (50% DMEM:F12, 50% Neurobasal, supplemented with NEAA, Glutamax, N2 and B27; Gibco, Life Technologies) containing 10 μM SB431542 (DNSK International), 100 nM LDN-193189 (DNSK International), 1 μM Retinoic Acid (RA, Sigma) and 1 μM of Smoothened-Agonist (SAG, DNSK International). Culture medium was daily changed until day 6, then was switched to N2B27 medium supplemented with 1 μM RA, 1 μM SAG, 5 μM DAPT (DNSK International) and 4 μM SU5402 (DNSK International). Cells were fed daily until day 14, when MNs were dissociated using TrypLE Express (Gibco, Life Technologies) supplemented with DNase I (Worthington) and plated onto pre-coated poly-D-Lysine/laminin or the distinct IKVAV-coated surfaces. MNs were feed 3 times a week with neurobasal medium (NBM: NEAA, Glutamax, N2 and B27) supplemented with Ascorbic acid (0.2 μg/ml; Sigma-Aldrich), BDNF, CNTF and GDNF (10 ng/mL, R&D systems) and 1% fetal bovine serum (FBS).

human MNs [2] = experiment: Tandem mass spectrometry and gene ontology (GO) analysis of proteins differentially expressed in MNs cultured on A2G2 IKVAV PA vs. laminin coated surfaces; type: cell-based; details: A2G2 condition vs. laminin; 21 out of the 58 GO terms of Ho et al., 2016 (FIG. 31A)
From the text: FIGS. 31A-31C Assessment of MN maturation through gene ontology (GO) analysis of proteins differentially expressed in MNs cultured on A2G2 IKVAV PA and laminin coated surfaces. Tandem mass spectrometry analysis uncovered differentially expressed proteins between MNs plated on […] surfaces, that are associated with GO terms that have been directly linked to human MN maturation (Ho et al., 2016). (FIG. 31A) From the differentially expressed proteins in A2G2 condition, 21 out of the 58 (36%) GO terms associated with maturation of human MNs were identified. […] Horizontal bar plots display the p-values of the MN maturation related GO terms identified in the protein data set. Pie charts represent the percentage of GO terms obtained in this study compared to the previously described GO terms associated with MN maturation (Ho et al., 2016).
Motor neurons (MN) differentiation: At 70% confluency, iPSC cultures were dissociated using Accutase and plated at a density of 10^5 cells/cm^2 with 10 μM ROCK inhibitor (Y-27632, DNSK International) in mTeSR1. Next day (day 0), media was replaced with N2B27 medium (50% DMEM:F12, 50% Neurobasal, supplemented with NEAA, Glutamax, N2 and B27; Gibco, Life Technologies) containing 10 μM SB431542 (DNSK International), 100 nM LDN-193189 (DNSK International), 1 μM Retinoic Acid (RA, Sigma) and 1 μM of Smoothened-Agonist (SAG, DNSK International). […]

C16A2G2E4GIKVAV (Palmitoyl-AAGGEEEEGIKVAV) [IKVAV peptide amphiphile with A2G2 structural segment]
action potential amplitude (human MNs [1]): significantly larger amplitude | action potential rates of rise and fall (human MNs [1]): faster rates of rise and fall | GO terms associated with maturation of human MNs identified from the differentially expressed proteins (human MNs [2]): 36%
